ChEMBL document CHEMBL1136938, “Structure-activity relationships comparing N-(6-methylpyridin-yl)-substituted aryl amides to 2-methyl-6-(substituted-arylethynyl)pyridines or 2-methyl-4-(substituted-arylethynyl)thiazoles as novel metabotropic glutamate receptor subtype 5 antagonists” (J Med Chem, 2009)

Legend:
[1] = target: Metabotropic glutamate receptor 6 (Homo sapiens) (UniProt O15303); experiment: Antagonist activity at cloned mGluR6 expressed in CHO cells co-transfected with chimeric G protein Gqi9 assessed as inhibition of glutamate-induced intracellular inositol phosphate accumulation at 10 uM by phosphoinositide hydrolysis assay; type: functional, cell-based
[2] = target: T1, Metabotropic glutamate receptor 5 (Homo sapiens, UniProt P41594); experiment: Antagonist activity at cloned mGluR5 expressed in CHO cells co-transfected with chimeric G protein Gqi9 assessed as inhibition of glutamate-induced intracellular inositol phosphate accumulation at 10 uM by phosphoinositide hydrolysis assay; type: functional, cell-based
Target sequence in this assay (P41594 21-1212 limits assumed): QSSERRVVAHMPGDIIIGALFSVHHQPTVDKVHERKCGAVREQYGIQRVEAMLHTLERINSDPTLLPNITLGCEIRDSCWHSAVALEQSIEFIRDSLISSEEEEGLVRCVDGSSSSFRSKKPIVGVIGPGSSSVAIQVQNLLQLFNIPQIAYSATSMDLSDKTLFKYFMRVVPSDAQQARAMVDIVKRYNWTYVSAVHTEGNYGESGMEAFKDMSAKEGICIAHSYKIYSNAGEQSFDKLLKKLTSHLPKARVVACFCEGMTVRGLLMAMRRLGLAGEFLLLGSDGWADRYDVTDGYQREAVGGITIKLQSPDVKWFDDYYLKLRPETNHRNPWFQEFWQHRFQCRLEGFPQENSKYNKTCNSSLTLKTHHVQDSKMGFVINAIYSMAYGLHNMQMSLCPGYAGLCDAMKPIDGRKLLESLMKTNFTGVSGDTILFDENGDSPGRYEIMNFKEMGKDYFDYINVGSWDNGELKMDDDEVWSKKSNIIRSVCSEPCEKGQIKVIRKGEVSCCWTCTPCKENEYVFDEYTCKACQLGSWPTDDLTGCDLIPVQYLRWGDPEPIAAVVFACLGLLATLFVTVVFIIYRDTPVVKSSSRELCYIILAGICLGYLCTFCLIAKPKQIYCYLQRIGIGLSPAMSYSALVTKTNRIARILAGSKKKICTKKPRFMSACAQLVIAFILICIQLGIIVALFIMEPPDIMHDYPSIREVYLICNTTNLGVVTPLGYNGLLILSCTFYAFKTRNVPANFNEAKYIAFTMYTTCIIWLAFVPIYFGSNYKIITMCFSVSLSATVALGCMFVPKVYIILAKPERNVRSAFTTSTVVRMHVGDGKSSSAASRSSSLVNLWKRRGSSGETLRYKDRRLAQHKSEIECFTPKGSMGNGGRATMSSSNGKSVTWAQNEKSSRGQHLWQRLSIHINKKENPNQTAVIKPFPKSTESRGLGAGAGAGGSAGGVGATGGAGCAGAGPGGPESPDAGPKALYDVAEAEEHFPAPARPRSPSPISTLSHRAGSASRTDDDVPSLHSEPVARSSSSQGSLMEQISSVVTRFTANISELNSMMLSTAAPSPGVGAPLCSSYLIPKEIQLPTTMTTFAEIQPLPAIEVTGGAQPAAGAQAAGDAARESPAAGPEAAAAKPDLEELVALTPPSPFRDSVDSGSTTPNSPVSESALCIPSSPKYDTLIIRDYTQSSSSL

[3] = target: Metabotropic glutamate receptor 1 (Homo sapiens) (UniProt Q13255); experiment: Antagonist activity at cloned mGluR1 expressed in CHO cells co-transfected with chimeric G protein Gqi9 assessed as inhibition of glutamate-induced intracellular inositol phosphate accumulation at 10 uM by phosphoinositide hydrolysis assay; type: functional, cell-based
[4] = target: T2, Metabotropic glutamate receptor 5 (Rattus norvegicus, UniProt P31424); experiment: Antagonist activity at rat mGluR5 expressed in HEK293A cells assessed as glutamate-induced calcium flux preincubated for 140 sec before glutamate challenge by calcium fluorescence assay; type: functional, cell-based, HEK293-A
[5] = target: T2, Metabotropic glutamate receptor 5; experiment: Displacement of [3H]MPEP from rat brain recombinant mGluR5 expressed in HEK293T cells by scintillation counting; type: cell-based, HEK-293T
[6] = target: T3, Sodium-dependent dopamine transporter (Homo sapiens, UniProt Q01959); experiment: Inhibition of dopamine uptake at human DAT expressed in HEK293 cells; type: cell-based
[7] = target: T4, Sodium-dependent serotonin transporter (Homo sapiens, UniProt P31645); experiment: Inhibition of serotonin uptake at human SERT expressed in HEK293 cells; type: cell-based
[8] = target: T5, Sodium-dependent noradrenaline transporter (Homo sapiens, UniProt P23975); experiment: Inhibition of norepinephrine uptake at human NET expressed in HEK293 cells; type: cell-based
[9] = target: T5, Sodium-dependent noradrenaline transporter; experiment: Displacement of [125I]RTI55 from human NET expressed in HEK293 cells; type: cell-based
[10] = target: T4, Sodium-dependent serotonin transporter; experiment: Displacement of [125I]RTI55 from human SERT expressed in HEK293 cells; type: cell-based
[11] = target: T3, Sodium-dependent dopamine transporter; experiment: Displacement of [125I]RTI55 from human DAT expressed in HEK293 cells; type: cell-based
[12] = target: T1, Metabotropic glutamate receptor 5; experiment: Displacement of [3H]MPEP from cloned mGluR5 expressed in HEK293T cells by scintillation counting; type: cell-based, HEK-293T
Target sequence in this assay (P41594 whole entry): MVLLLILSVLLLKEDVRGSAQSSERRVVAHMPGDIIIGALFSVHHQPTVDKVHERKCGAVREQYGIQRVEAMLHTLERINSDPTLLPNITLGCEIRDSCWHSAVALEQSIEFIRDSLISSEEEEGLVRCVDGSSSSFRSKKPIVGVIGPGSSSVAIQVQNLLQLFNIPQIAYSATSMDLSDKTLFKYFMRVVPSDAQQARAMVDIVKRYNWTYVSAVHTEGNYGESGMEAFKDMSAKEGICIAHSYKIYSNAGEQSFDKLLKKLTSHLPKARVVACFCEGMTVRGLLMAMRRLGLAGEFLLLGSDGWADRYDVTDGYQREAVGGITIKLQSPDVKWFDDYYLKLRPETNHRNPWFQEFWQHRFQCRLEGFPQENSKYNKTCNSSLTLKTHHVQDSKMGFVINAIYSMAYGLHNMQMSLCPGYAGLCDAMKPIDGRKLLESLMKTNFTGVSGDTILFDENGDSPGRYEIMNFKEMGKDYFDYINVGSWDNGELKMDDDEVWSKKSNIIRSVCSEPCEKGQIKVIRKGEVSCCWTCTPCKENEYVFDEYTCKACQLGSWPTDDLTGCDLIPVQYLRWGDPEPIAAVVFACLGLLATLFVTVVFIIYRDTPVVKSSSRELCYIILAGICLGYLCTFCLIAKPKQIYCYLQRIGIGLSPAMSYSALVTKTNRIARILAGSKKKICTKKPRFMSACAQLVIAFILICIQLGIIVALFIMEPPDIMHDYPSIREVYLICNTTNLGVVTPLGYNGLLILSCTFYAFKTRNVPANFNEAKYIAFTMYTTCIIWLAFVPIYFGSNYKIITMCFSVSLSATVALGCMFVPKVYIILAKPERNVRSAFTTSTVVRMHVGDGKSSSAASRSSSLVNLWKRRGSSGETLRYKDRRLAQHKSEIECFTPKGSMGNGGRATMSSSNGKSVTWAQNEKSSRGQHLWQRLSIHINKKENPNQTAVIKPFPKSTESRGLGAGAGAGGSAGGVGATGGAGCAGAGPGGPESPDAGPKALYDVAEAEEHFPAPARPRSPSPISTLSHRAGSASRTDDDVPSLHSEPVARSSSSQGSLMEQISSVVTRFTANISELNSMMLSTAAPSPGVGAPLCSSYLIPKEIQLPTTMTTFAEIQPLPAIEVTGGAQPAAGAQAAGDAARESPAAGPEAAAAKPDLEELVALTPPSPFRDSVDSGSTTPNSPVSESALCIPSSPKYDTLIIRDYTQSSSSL

Metabotropic glutamate receptor 6 (Homo sapiens), sequence (O15303 whole entry): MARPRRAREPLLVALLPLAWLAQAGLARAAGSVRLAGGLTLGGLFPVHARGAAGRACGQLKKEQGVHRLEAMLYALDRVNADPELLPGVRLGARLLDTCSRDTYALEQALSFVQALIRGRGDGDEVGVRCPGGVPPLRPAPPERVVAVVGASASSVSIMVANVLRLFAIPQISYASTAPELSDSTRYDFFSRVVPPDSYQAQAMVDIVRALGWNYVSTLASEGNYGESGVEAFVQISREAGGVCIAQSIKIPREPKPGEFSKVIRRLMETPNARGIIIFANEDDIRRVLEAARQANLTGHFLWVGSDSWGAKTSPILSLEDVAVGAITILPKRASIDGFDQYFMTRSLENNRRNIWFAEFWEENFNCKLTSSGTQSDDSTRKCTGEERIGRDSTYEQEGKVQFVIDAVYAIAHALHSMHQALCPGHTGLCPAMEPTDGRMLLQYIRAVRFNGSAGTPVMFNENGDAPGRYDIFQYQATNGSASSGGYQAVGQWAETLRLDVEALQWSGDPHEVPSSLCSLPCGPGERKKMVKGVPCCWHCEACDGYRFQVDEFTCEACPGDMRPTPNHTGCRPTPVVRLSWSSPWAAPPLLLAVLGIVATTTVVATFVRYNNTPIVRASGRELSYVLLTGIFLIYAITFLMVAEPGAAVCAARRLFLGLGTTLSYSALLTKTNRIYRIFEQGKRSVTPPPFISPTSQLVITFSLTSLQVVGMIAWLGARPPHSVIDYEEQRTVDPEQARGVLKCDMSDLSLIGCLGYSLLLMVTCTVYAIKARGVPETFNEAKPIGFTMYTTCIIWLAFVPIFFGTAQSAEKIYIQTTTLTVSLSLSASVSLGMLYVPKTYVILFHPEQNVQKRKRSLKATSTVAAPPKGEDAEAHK
T4 sequence (P31645 whole entry): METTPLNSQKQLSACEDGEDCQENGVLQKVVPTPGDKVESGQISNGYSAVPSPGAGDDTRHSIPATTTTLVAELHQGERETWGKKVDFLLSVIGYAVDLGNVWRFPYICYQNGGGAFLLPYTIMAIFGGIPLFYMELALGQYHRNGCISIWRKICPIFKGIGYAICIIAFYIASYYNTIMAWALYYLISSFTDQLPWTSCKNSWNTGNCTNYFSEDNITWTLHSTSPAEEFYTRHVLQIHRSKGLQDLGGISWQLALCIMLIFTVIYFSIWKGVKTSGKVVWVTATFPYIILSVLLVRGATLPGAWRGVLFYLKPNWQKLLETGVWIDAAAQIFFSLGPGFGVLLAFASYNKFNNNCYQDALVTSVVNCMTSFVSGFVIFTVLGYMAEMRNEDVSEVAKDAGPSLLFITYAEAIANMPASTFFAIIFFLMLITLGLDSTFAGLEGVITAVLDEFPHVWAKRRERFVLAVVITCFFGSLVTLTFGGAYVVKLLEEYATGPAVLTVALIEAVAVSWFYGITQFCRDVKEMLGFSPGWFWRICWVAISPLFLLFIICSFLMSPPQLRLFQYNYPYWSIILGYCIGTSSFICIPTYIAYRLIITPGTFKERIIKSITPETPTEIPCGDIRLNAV
T2 sequence (P31424 whole entry): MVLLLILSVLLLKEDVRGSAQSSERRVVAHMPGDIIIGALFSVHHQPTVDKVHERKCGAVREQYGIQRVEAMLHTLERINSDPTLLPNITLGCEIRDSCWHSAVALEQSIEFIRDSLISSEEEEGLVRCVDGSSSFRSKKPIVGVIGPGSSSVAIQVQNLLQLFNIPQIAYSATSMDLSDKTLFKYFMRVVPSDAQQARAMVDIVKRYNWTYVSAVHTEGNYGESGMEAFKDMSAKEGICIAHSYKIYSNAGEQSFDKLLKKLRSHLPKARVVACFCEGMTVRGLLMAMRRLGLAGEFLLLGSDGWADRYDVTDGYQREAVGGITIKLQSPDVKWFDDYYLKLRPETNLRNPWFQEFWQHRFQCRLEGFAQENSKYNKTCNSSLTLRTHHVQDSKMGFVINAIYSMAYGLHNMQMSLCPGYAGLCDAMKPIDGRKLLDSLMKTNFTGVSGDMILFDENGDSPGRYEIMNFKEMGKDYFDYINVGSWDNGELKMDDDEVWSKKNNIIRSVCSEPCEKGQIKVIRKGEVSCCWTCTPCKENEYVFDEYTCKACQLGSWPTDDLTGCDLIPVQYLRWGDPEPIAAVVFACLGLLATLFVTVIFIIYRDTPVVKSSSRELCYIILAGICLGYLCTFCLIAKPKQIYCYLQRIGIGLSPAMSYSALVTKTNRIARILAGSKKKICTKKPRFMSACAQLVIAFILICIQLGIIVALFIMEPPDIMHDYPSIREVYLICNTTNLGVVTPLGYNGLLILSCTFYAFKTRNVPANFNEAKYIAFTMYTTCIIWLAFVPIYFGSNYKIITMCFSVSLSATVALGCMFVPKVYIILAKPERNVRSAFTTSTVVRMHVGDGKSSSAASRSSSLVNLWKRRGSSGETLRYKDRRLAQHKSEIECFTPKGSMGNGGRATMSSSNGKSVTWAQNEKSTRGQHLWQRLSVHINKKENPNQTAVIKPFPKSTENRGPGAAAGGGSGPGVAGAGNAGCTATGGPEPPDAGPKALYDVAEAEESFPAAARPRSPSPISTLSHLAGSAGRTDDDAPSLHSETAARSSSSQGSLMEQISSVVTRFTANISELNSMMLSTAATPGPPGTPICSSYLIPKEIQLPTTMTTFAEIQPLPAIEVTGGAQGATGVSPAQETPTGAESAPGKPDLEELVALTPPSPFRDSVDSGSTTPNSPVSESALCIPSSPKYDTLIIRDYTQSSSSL

| SMILES | inhibition [1] | inhibition [2] | inhibition [3] | IC50 [4] | Ki [5] | Ki [6] | Ki [7] | Ki [8] | Ki [9] | Ki [10] | Ki [11] | Ki [12] |
| --- | --- | --- | --- | --- | --- | --- | --- | --- | --- | --- | --- | --- |
| Cc1nc(C#Cc2ccc(-c3ccccc3)nc2)cs1 | < 70% | > 70% | < 70% | – | – | – | – | – | – | – | – | – |
| Cc1nc(C#Cc2cccc(-c3ccccc3)c2)cs1 | < 70% | > 70% | < 70% | – | – | – | – | – | – | – | – | – |
| Cc1cccc(NC(=O)c2cccc(C#N)c2)n1 | < 70% | > 70% | < 70% | 490 nM | 330 nM | – | – | – | – | – | – | – |
| Cc1nc(C#Cc2ccc(-c3cccnc3)c(F)c2)cs1 | < 70% | > 70% | < 70% | – | – | > 6 µM | > 6 µM | > 6 µM | > 6 µM | > 6 µM | > 6 µM | – |
| Cc1cccc(C#Cc2ccccc2)n1 | < 70% | > 70% | < 70% | – | – | – | – | – | – | – | – | – |
| Cc1cccc(NC(=O)c2ccc(Br)cc2)n1 | < 70% | > 70% | < 70% | – | – | – | – | – | – | – | – | > 10 µM |
| Cc1nc(C#Cc2ccc(-c3cccnc3)nc2)cs1 | < 70% | > 70% | < 70% | – | – | – | – | – | – | – | – | – |
| Cc1cccc(NC(=O)c2ccc(Oc3ccccc3)cc2)n1 | < 70% | > 70% | < 70% | – | – | – | – | – | – | – | – | 7.29 µM |
| COc1ccccc1-c1cncc(C(=O)Nc2cccc(C)n2)c1 | < 70% | > 70% | < 70% | – | 4920 nM | – | – | – | – | – | – | – |
| Cc1cccc(NC(=O)c2cc(F)cc(F)c2)n1 | < 70% | ≤ 70% | < 70% | – | – | – | – | – | – | – | – | 7.58 µM |
| Cc1cccc(NC(=O)c2ccc(-c3cccc(Cl)c3)cc2)n1 | < 70% | ≤ 70% | < 70% | – | – | – | – | – | – | – | – | 3.33 µM |
| Cc1cccc(NC(=O)c2ccc(-c3cccnc3)nc2)n1 | < 70% | > 70% | < 70% | > 3000 nM | 2480 nM | – | – | – | – | – | – | – |
| Cc1nc(C#Cc2cc(F)cc(C#N)c2)cs1 | < 70% | > 70% | < 70% | 0.813 nM | – | – | – | – | – | – | – | 0.0009 µM |
| Cc1cccc(NC(=O)c2ccc(-c3cccc(F)c3)c(C#N)c2)n1 | < 70% | > 70% | < 70% | – | – | > 6 µM | > 6 µM | > 6 µM | > 6 µM | > 6 µM | > 6 µM | – |
| Cc1cccc(NC(=O)c2ccc(-c3ccc(F)cc3)c(C#N)c2)n1 | < 70% | > 70% | < 70% | 4.57 nM | 134 nM | – | – | – | – | – | – | – |
| Cc1cccc(NC(=O)c2cccc(-c3ccccc3)c2)n1 | < 70% | > 70% | < 70% | – | 7300 nM | – | – | – | – | – | – | – |
| Cc1cccc(NC(=O)c2ccc(-c3ccccc3)nc2)n1 | < 70% | > 70% | < 70% | > 3000 nM | 356 nM | – | – | – | – | – | – | – |
| Cc1cccc(NC(=O)c2ccc(-c3cccc(C#N)c3)cc2)n1 | < 70% | ≤ 70% | < 70% | – | – | – | – | – | – | – | – | > 10 µM |
| Cc1cccc(NC(=O)c2cc(-c3cc(F)cc(F)c3)ccn2)n1 | < 70% | > 70% | < 70% | 98.1 nM | – | – | – | – | – | – | – | – |

| SMILES | inhibition [1] | inhibition [2] | inhibition [3] | IC50 [4] | Ki [5] | Ki [6] | Ki [7] | Ki [8] | Ki [9] | Ki [10] | Ki [11] | Ki [12] |
| --- | --- | --- | --- | --- | --- | --- | --- | --- | --- | --- | --- | --- |
| Cc1cccc(NC(=O)c2ccc(F)c(F)c2)n1 | < 70% | > 70% | < 70% | – | – | – | – | – | – | – | – | > 10 µM |
| Cc1cccc(NC(=O)c2ccc(-c3ccccc3)c(C#N)c2)n1 | – | – | – | 13.7 nM | – | > 6 µM | > 6 µM | > 6 µM | > 6 µM | > 6 µM | > 6 µM | 0.0098 µM |
| Cc1cccc(NC(=O)c2ccc(C#N)cc2)n1 | < 70% | > 70% | < 70% | – | – | – | – | – | – | – | – | > 10 µM |
| Cc1cccc(C#Cc2cccc(C#N)c2)n1 | < 70% | > 70% | < 70% | 0.415 nM | 1.3 nM | – | – | – | – | – | – | – |
| Cc1cccc(NC(=O)c2ccc(-c3cccnc3)c(C#N)c2)n1 | < 70% | > 70% | < 70% | > 1000 nM | 2040 nM | – | – | – | – | – | – | – |
| Cc1cccc(C#Cc2ccc(-c3ccc(F)cc3)c(C#N)c2)n1 | < 70% | > 70% | < 70% | 7.19 nM | 3 nM | – | – | – | – | – | – | – |
| Cc1cccc(NC(=O)c2cc(F)cc(C#N)c2)n1 | < 70% | > 70% | < 70% | 21.7 nM | 65.5 nM | – | – | – | – | – | – | – |
| Cc1cccc(NC(=O)c2ccc(-c3cccnc3)c(Cl)c2)n1 | < 70% | > 70% | < 70% | > 1000 nM | 2780 nM | – | – | – | – | – | – | – |
| Cc1cccc(NC(=O)c2cncc(-c3cccnc3)c2)n1 | < 70% | > 70% | < 70% | – | > 10000 nM | – | – | – | – | – | – | – |
| Cc1cccc(NC(=O)c2ccc(-c3cccnc3)c(F)c2)n1 | < 70% | > 70% | < 70% | > 3000 nM | 7720 nM | – | – | – | – | – | – | – |
| Cc1nc(C#Cc2cccnc2)cs1 | < 70% | < 70% | < 70% | – | – | – | – | – | – | – | – | – |
| Cc1cccc(NC(=O)c2ccc(-c3cccc4ccccc34)c(C#N)c2)n1 | < 70% | > 70% | < 70% | 640 nM | 72 nM | – | – | – | – | – | – | – |
| Cc1cccc(NC(=O)c2ccc(-c3ccccc3)cc2)n1 | < 70% | ≤ 70% | < 70% | – | – | – | – | – | – | – | – | 7 µM |
| Cc1cccc(NC(=O)c2cc(F)cc(-c3cccnc3)c2)n1 | < 70% | > 70% | < 70% | – | 702 nM | – | – | – | – | – | – | – |
| Cc1nc(C#Cc2cc(F)cc(-c3cccnc3)c2)cs1 | < 70% | > 70% | < 70% | 4.83 nM | – | > 6 µM | > 6 µM | > 6 µM | > 6 µM | > 6 µM | > 6 µM | 0.0027 µM |
| Cc1cccc(NC(=O)c2cccc(Cl)c2)n1 | < 70% | > 70% | < 70% | 1870 nM | 1730 nM | – | – | – | – | – | – | – |
| Cc1cccc(NC(=O)c2cc(F)cc(-c3ccccc3C)c2)n1 | < 70% | > 70% | < 70% | – | 610 nM | – | – | – | – | – | – | – |
| COc1ccccc1-c1cc(F)cc(C(=O)Nc2cccc(C)n2)c1 | < 70% | > 70% | < 70% | – | > 10000 nM | – | – | – | – | – | – | – |
